Experimental findings from paper PMC3823043 (Journal of Cellular and Molecular Medicine, 2008) are described below.

The assay addresses delta opioid receptor (DOR), murine, wild-type (Mus musculus, UniProt P32300). In words: [3H]naltrindole radioligand binding. The conditions noted are these: labelled compound; HEK293 DOR clone; no affinity constant printed.

delta opioid receptor (DOR), murine, wild-type, sequence (P32300 whole entry): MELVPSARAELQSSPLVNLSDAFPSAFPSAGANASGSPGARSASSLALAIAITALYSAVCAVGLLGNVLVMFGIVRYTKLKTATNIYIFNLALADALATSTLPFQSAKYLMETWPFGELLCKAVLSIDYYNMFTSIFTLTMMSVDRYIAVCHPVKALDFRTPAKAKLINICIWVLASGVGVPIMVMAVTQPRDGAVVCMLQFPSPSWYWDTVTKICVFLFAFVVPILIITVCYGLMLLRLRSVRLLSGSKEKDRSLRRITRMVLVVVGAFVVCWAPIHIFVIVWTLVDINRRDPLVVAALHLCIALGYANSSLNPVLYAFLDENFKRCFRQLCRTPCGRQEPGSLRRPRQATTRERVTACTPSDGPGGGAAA

On to `Oc1ccc2c3c1O[C@H]1c4[nH]c5ccccc5c4C[C@@]4(O)[C@@H](C2)N(CC2CC2)CC[C@]314` [[3H]naltrindole], for which the “[3H]naltrindole radioligand binding” value was “Receptor expression levels in DOR clones was assessed by means of [^3H]Naltrindole binding”.
